Reference: US12630528B2, “Amino aryl derivative useful as diacylglycerol acyltransferase 2 inhibitor and use thereof” (LG CHEM, LTD., priority 2019, dated 2026)

target: T1, human DGAT2 (Homo sapiens, UniProt Q96PD7); assay: DGAT2 enzyme activity inhibition, Phospholipid FlashPlate SPA; assay type: biochemical; settings: recombinant human DGAT2 membrane protein from Sf-21 cells; inhibition of [14C]-TG production; 37° C.
T1 construct: FLAG (DYKDDDDK); made in house; host or cells: Sf-21 insect cells (BacPAK baculovirus system); membrane fraction used
T1 sequence (Q96PD7 1-388): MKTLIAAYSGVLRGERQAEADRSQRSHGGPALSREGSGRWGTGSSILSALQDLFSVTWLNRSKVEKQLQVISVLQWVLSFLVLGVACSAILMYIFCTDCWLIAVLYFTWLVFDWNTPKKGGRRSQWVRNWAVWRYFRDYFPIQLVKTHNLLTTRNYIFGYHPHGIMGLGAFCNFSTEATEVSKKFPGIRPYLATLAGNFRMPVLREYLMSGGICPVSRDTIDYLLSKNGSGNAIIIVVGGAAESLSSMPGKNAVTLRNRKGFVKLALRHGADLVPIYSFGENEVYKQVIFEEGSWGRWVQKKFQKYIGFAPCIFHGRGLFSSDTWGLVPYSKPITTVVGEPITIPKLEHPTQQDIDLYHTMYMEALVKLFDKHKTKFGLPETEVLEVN
Outline: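 Sf-21 membranes expressing recombinant human DGAT2 (2 μg) preincubated with compound (3 nM–10 μM, 1% DMSO) and 50 μM 1,2 sn-oleoyl glycerol, 20 min at 37 °C, then 1 μM [14C]oleoyl-CoA for 15 min. [14C]-TG counted by SPA; inhibition as % of untreated.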

Compared with CCOc1ccccc1O[C@@H]1CCCN(c2cncc(Nc3nccc(N4CCN(CC(=O)O)CC4)n3)n2)C1 [Example 127, (R)-2-(4-(2-((6-(3-(2-ethoxyphenoxy)piperidin-1-yl)pyrazin-2-yl)amino)pyrimidin-4-yl)piperazin-1-yl)acetic Acid], CCOc1ccccc1O[C@@H]1CCCN(c2cncc(Nc3nccc(N4CCC[C@H](OCC(=O)O)C4)n3)n2)C1 [Example 131, 2-(((S)-1-(2-((6-((R)-3-(2-ethoxyphenoxy)piperidin-1-yl)pyrazin-2-yl)amino)pyrimidin-4-yl)piperidin-3-yl)oxy)acetic Acid] is higher in IC50: 2900 nM for the first, greater than 10000 nM for the second. The first is the more potent here.

Compared with CCOc1ccccc1O[C@@H]1CCCN(c2cncc(Nc3ccc(CCC(=O)O)cn3)n2)C1 [Example 38, (R)-3-(6-((6-(3-(2-ethoxyphenoxy)piperidin-1-yl)pyrazin-2-yl)amino)pyridin-3-yl)propanoic Acid], CCOc1ccccc1O[C@@H]1CCCN(c2cncc(Nc3cc(CC(C)(C)C(=O)O)ccn3)n2)C1 [Example 39, (R)-3-(2-((6-(3-(2-ethoxyphenoxy)piperidin-1-yl)pyrazin-2-yl)amino)pyridin-4-yl)-2,2-dimethylpropanoic Acid] is lower in IC50: greater than 10000 nM for the first, 2700 nM for the second. The second is the more potent here.

Compared with CCOc1cccnc1O[C@@H]1CCCN(c2cncc(Nc3nc(-c4cc(CC(C)(C)C(=O)O)ccc4F)ccc3F)n2)C1 [Example 108, (R)-3-(3-(6-((6-(3-((3-ethoxypyridin-2-yl)oxy)piperidin-1-yl)pyrazin-2-yl)amino)-5-fluoropyridin-2-yl)-4-fluorophenyl)-2,2-dimethylpropanoic Acid], CCOc1cccnc1O[C@@H]1CCCN(c2cncc(Nc3cccc(-c4cccc(CC(C)(C)C(=O)O)c4)n3)n2)C1 [Example 64, (R)-3-(3-(6-((6-(3-((3-ethoxypyridin-2-yl)oxy)piperidin-1-yl)pyrazin-2-yl)amino)pyridin-2-yl)phenyl)-2,2-dimethylpropanoic Acid] is 2.7-fold lower in IC50: 350 nM for the first, 130 nM for the second. The second is the more potent here.

Going from CCOc1ccccc1O[C@@H]1CCCN(c2cncc(Nc3nccc(-c4ccc(C(C)(C)C(=O)O)cc4)n3)n2)C1 [Example 143, (R)-2-(4-(2-((6-(3-(2-ethoxyphenoxy)piperidin-1-yl)pyrazin-2-yl)amino)pyrimidin-4-yl)phenyl)-2-methylpropanoic Acid] to CCOc1cccnc1O[C@@H]1CCCN(c2cncc(Nc3nccc(-c4cccc(C(C)(C)C(=O)O)c4)n3)n2)C1 [Example 142, (R)-2-(3-(2-((6-(3-((3-ethoxypyridin-2-yl)oxy)piperidin-1-yl)pyrazin-2-yl)amino)pyrimidin-4-yl)phenyl)-2-methylpropanoic Acid], the IC50 rises from 200 nM to 380 nM (1.9-fold). The first is the more potent here.

Going from CCOc1ccccc1O[C@@H]1CCCN(c2cncc(Nc3nnnn3C)n2)C1 [Example 23, (R)-6-(3-(2-ethoxyphenoxy)piperidin-1-yl)-N-(1-methyl-1H-tetrazol-5-yl)pyrazin-2-amine] to CCOc1ccccc1O[C@@H]1CCCN(c2cncc(Nc3nccc(N4CCCC(C)(C(=O)O)C4)n3)n2)C1 (stereo partly drawn) [Example 122, 1-(2-((6-((R)-3-(2-ethoxyphenoxy)piperidin-1-yl)pyrazin-2-yl)amino)pyrimidin-4-yl)-3-methylpiperidine-3-carboxylic Acid], the IC50 rises from 270 nM to 6100 nM (23-fold). The first is the more potent here.

First: CCOc1ccccc1O[C@@H]1CCCN(c2cncc(Nc3nccc(C4CC5CC4CC5C(=O)O)n3)n2)C1 (stereo partly drawn) [Example 124, 5-(2-((6-((R)-3-(2-ethoxyphenoxy)piperidin-1-yl)pyrazin-2-yl)amino)pyrimidin-4-yl)bicyclo[2.2.1]heptane-2-carboxylic Acid]
Second: CCOc1ccccc1O[C@@H]1CCCN(c2cncc(Nc3nccc(-c4cccc(C(=O)O)n4)n3)n2)C1 [Example 139, (R)-6-(2-((6-(3-(2-ethoxyphenoxy)piperidin-1-yl)pyrazin-2-yl)amino)pyrimidin-4-yl)picolinic Acid]
The IC50 of the first is lower: 340 nM for the first, greater than 10000 nM for the second. The first is the more potent here.

Going from CCOc1ccccc1O[C@@H]1CCCN(c2cncc(Nc3cccc(N4CCC(C(=O)O)C4)n3)n2)C1 (stereo partly drawn) [Example 52, 1-(6-((6-((R)-3-(2-ethoxyphenoxy)piperidin-1-yl)pyrazin-2-yl)amino)pyridin-2-yl)pyrrolidine-3-carboxylic Acid] to CCOc1ccccc1O[C@@H]1CCCN(c2cncc(Nc3ccnc(-c4cccc(CC(C)(C)C(=O)O)c4)n3)n2)C1 [Example 170, (R)-3-(3-(4-((6-(3-(2-ethoxyphenoxy)piperidin-1-yl)pyrazin-2-yl)amino)pyrimidin-2-yl)phenyl)-2,2-dimethylpropanoic Acid], the IC50 falls from 730 nM to 250 nM (2.9-fold). The second is the more potent here.

Going from CCOc1cccnc1O[C@@H]1CCCN(c2cncc(Nc3nccc(-c4ccc(CC(=O)O)cc4)n3)n2)C1 [Example 152, (R)-2-(4-(2-((6-(3-((3-ethoxypyridin-2-yl)oxy)piperidin-1-yl)pyrazin-2-yl)amino)pyrimidin-4-yl)phenyl)acetic Acid] to CCOc1cccnc1O[C@@H]1CCCN(c2cncc(Nc3nccc(-c4cccc(CC(C)(C)C(=O)O)c4)n3)n2)C1 [Example 147, (R)-3-(3-(2-((6-(3-((3-ethoxypyridin-2-yl)oxy)piperidin-1-yl)pyrazin-2-yl)amino)pyrimidin-4-yl)phenyl)-2,2-dimethylpropanoic Acid], the IC50 falls from 810 nM to 150 nM (5.4-fold).

Going from CCOc1ccccc1O[C@@H]1CCCN(c2nccc(Nc3cccc(-c4ccc(NCC(=O)O)cc4)n3)n2)C1 [Example 75, (R)-(4-(6-((2-(3-(2-ethoxyphenoxy)piperidin-1-yl)pyrimidin-4-yl)amino)pyridin-2-yl)phenyl)glycine] to CCOc1cccnc1O[C@@H]1CCCN(c2cncc(Nc3ccc(F)c(-c4cccc(OC(C)(C)C(=O)O)c4)n3)n2)C1 [Example 105, (R)-2-(3-(6-((6-(3-((3-ethoxypyridin-2-yl)oxy)piperidin-1-yl)pyrazin-2-yl)amino)-3-fluoropyridin-2-yl)phenoxy)-2-methylpropanoic Acid], the IC50 falls from 890 nM to 500 nM (1.8-fold).
